Results on five compounds are retold here after ChEMBL document CHEMBL3044945, “Synthesis of 1,3,5-trisubstituted pyrazoline nucleus containing compounds and screening for antimicrobial activity” (2012).

Common to all, as to type: functional
The subject of assay [1] is Pseudomonas aeruginosa. The assay can be described thus: Antibacterial activity against Pseudomonas aeruginosa MTCC 424 at 100 ug/ml after 48 hr by cup-plate method. The note with it: MTCC 424, 48 h, read-out: DIZ.
In a further assay the test system is Penicillium chrysogenum. Briefly: Antifungal activity against Penicillium chrysogenum MTCC 161 at 750 ug/ml after 48 hr by cup-plate method. The note with it: MTCC 161, 48 h, read-out: DIZ.
Assay [2] deals with Aspergillus niger. Briefly: Antifungal activity against Aspergillus niger MTCC 2546 at 250 ug/ml after 48 hr by cup-plate method. The note with it: MTCC 2546, 48 h, read-out: DIZ.
In assay [3] the test system is Staphylococcus aureus. Briefly: Antibacterial activity against Staphylococcus aureus MTCC 1430 at 1250 ug/ml after 48 hr by cup-plate method. The note with it: MTCC 1430, 48 h, read-out: DIZ.
Assay [4] deals with Micrococcus luteus. Briefly: Antibacterial activity against Micrococcus luteus MTCC 1538 after 24 to 48 hr by tube dilution method.
For assay [5], the system named is Bacillus subtilis. The assay can be described thus: Antibacterial activity against Bacillus subtilis MTCC 441 at 500 ug/ml after 48 hr by cup-plate method. The note with it: MTCC 441, 48 h, read-out: DIZ.
Assay [6] concerns Staphylococcus aureus. The assay can be described thus: Antibacterial activity against Staphylococcus aureus MTCC 1430 at 100 ug/ml after 48 hr by cup-plate method. The note with it: MTCC 1430, 48 h, read-out: DIZ.
Assay [7] concerns Staphylococcus aureus. Briefly: Antibacterial activity against Staphylococcus aureus MTCC 1430 at 250 ug/ml after 48 hr by cup-plate method. The note with it: MTCC 1430, 48 h, read-out: DIZ.
For assay [8], the system named is Bacillus pumilus. Briefly: Antibacterial activity against Bacillus pumilus MTCC 1456 at 1000 ug/ml after 48 hr by cup-plate method. The note with it: MTCC 1456, 48 h, read-out: DIZ.
Assay [9] has as its system Staphylococcus aureus. The assay can be described thus: Antibacterial activity against Staphylococcus aureus MTCC 1430 at 750 ug/ml after 48 hr by cup-plate method. The note with it: MTCC 1430, 48 h, read-out: DIZ.
Assay [10] concerns Pseudomonas aeruginosa. Briefly: Antibacterial activity against Pseudomonas aeruginosa MTCC 424 at 500 ug/ml after 48 hr by cup-plate method. The note with it: MTCC 424, 48 h, read-out: DIZ.
Assay [11] concerns Micrococcus luteus. The assay can be described thus: Antibacterial activity against Micrococcus luteus MTCC 1538 at 100 ug/ml after 48 hr by cup-plate method. The note with it: MTCC 1538, 48 h, read-out: DIZ.
The test system of assay [12] is Aspergillus niger. Briefly: Antifungal activity against Aspergillus niger MTCC 2546 at 500 ug/ml after 48 hr by cup-plate method. The note with it: MTCC 2546, 48 h, read-out: DIZ.
Assay [13] has as its system Bacillus pumilus. Briefly: Antibacterial activity against Bacillus pumilus MTCC 1456 at 1250 ug/ml after 48 hr by cup-plate method. The note with it: MTCC 1456, 48 h, read-out: DIZ.
In assay [14] the test system is Pseudomonas aeruginosa. The assay can be described thus: Antibacterial activity against Pseudomonas aeruginosa MTCC 424 at 250 ug/ml after 48 hr by cup-plate method. The note with it: MTCC 424, 48 h, read-out: DIZ.
In another assay the test system is Escherichia coli. Briefly: Antibacterial activity against Escherichia coli MTCC 1573 after 24 to 48 hr by tube dilution method.
Assay [15] has as its system Bacillus subtilis. The assay can be described thus: Antibacterial activity against Bacillus subtilis MTCC 441 at 250 ug/ml after 48 hr by cup-plate method. The note with it: MTCC 441, 48 h, read-out: DIZ.

Converted amounts (≈) assume the structure as drawn.

As for `O=[N+]([O-])c1ccc(C2CC(c3cccc4ccccc34)=NN2)cc1` (configuration not stated), the zone of inhibition at 100 µg/mL with Pseudomonas aeruginosa [1], in the assay on Staphylococcus aureus [6] and with Micrococcus luteus [11] was 9 mm each time. Further, the zone of inhibition at 750 µg/mL is 14 mm in the assay on Penicillium chrysogenum and 13 mm in the assay on Staphylococcus aureus [9]. For the same compound, the zone of inhibition at 250 µg/mL with Aspergillus niger [2] worked out at 9 mm; in the assay with Staphylococcus aureus [7], 10 mm; with Pseudomonas aeruginosa [14] it was 10 mm; in the assay with Bacillus subtilis [15], 12 mm. In addition, the zone of inhibition at 1250 µg/mL in the assay with Staphylococcus aureus [3] stood at 16 mm; with Bacillus pumilus [13] it was 22 mm. The results for the MIC in the assay with Micrococcus luteus [4] and with Escherichia coli were 30 µg/mL (≈ 94.5 µM) and 200 µg/mL (≈ 630 µM), respectively. For the same compound, the values for the zone of inhibition at 500 µg/mL in the assay with Bacillus subtilis [5], in the assay on Pseudomonas aeruginosa [10] and in the assay on Aspergillus niger [12] were 13 mm, 11 mm and 10 mm, respectively. Moreover, in the assay with Bacillus pumilus [8], the zone of inhibition at 1000 µg/mL came out at 17 mm.

Take `O=[N+]([O-])c1ccc(C2CC(c3cccc4ccccc34)=NN2c2ccccc2)cc1` (configuration not stated): in the assay on Pseudomonas aeruginosa [1], the zone of inhibition at 100 µg/mL was found to be 9 mm. Moreover, the values for the zone of inhibition at 750 µg/mL in the assay with Penicillium chrysogenum and in the assay with Staphylococcus aureus [9] were 15 mm and 12 mm, respectively. In addition, the zone of inhibition at 250 µg/mL in the assay on Aspergillus niger [2] came to 12 mm; with Staphylococcus aureus [7] it was 10 mm; in the assay on Pseudomonas aeruginosa [14], 10 mm; with Bacillus subtilis [15] it was 14 mm. Besides, the zone of inhibition at 1250 µg/mL in the assay on Staphylococcus aureus [3] and in the assay with Bacillus pumilus [13] was 18 mm throughout. The minimal inhibitory concentration (MIC) (in general, the smallest concentration in the dilution series that meets the test's criterion for growth inhibition) against Micrococcus luteus [4] came to 200 µg/mL (≈ 508 µM); against Escherichia coli, 50 µg/mL (≈ 127 µM). Further, the zone of inhibition at 500 µg/mL in the assay on Bacillus subtilis [5] came out at 15 mm; with Pseudomonas aeruginosa [10], 12 mm; with Aspergillus niger [12] it was 13 mm. For the same compound, the zone of inhibition at 1000 µg/mL in the assay on Bacillus pumilus [8] stood at 16 mm.

With `O=[N+]([O-])c1ccc(C2CC(c3cccc4ccccc34)=NN2c2ccc([N+](=O)[O-])cc2)cc1` (configuration not stated), in the assay with Pseudomonas aeruginosa [1], the zone of inhibition at 100 µg/mL is 9 mm. The zone of inhibition at 750 µg/mL in the assay with Penicillium chrysogenum was determined as 14 mm; in the assay on Staphylococcus aureus [9], 11 mm. Moreover, the zone of inhibition at 250 µg/mL worked out at 13 mm in the assay with Aspergillus niger [2], 9 mm in the assay with Staphylococcus aureus [7], 10 mm in the assay with Pseudomonas aeruginosa [14] and 12 mm in the assay on Bacillus subtilis [15]. Besides, the zone of inhibition at 1250 µg/mL in the assay with Staphylococcus aureus [3] came out at 13 mm; with Bacillus pumilus [13] it was 20 mm. Further, the MIC with Micrococcus luteus [4] is 150 µg/mL (≈ 342 µM); in the assay with Escherichia coli it was 50 µg/mL (≈ 114 µM). Also, the zone of inhibition at 500 µg/mL is 13 mm with Bacillus subtilis [5], 11 mm in the assay on Pseudomonas aeruginosa [10] and 14 mm in the assay with Aspergillus niger [12]. For the same compound, in the assay with Bacillus pumilus [8], the zone of inhibition at 1000 µg/mL was 18 mm.

With `NC(=S)N1N=C(c2cccc3ccccc23)CC1c1ccc([N+](=O)[O-])cc1` (configuration not stated), the zone of inhibition at 100 µg/mL in the assay on Pseudomonas aeruginosa [1] amounted to 10 mm. The zone of inhibition at 750 µg/mL in the assay with Penicillium chrysogenum was found to be 19 mm; in the assay with Staphylococcus aureus [9], 11 mm. In addition, the zone of inhibition at 250 µg/mL in the assay on Aspergillus niger [2] came out at 11 mm; in the assay with Staphylococcus aureus [7], 9 mm; in the assay on Pseudomonas aeruginosa [14], 11 mm; with Bacillus subtilis [15], 11 mm. For the same compound, the results for the zone of inhibition at 1250 µg/mL in the assay with Staphylococcus aureus [3] and with Bacillus pumilus [13] were 14 mm and 21 mm, respectively. Besides, the values for the minimal inhibitory concentration (MIC) against Micrococcus luteus [4] and in the assay with Escherichia coli were 150 µg/mL (≈ 398 µM) and 50 µg/mL (≈ 133 µM), respectively. Further, the zone of inhibition at 500 µg/mL in the assay on Bacillus subtilis [5] came out at 12 mm; in the assay with Pseudomonas aeruginosa [10], 12 mm; in the assay with Aspergillus niger [12], 17 mm. In addition, the zone of inhibition at 1000 µg/mL in the assay on Bacillus pumilus [8] turned out to be 19 mm.

For `O=[N+]([O-])c1ccc(C2CC(c3cccc4ccccc34)=NN2c2ccccc2[N+](=O)[O-])cc1` (configuration not stated), the zone of inhibition at 100 µg/mL in the assay on Pseudomonas aeruginosa [1] was found to be 13 mm. The values for the zone of inhibition at 750 µg/mL in the assay with Penicillium chrysogenum and in the assay on Staphylococcus aureus [9] were 20 mm and 12 mm, respectively. In addition, the zone of inhibition at 250 µg/mL in the assay on Aspergillus niger [2] came out at 11 mm; with Staphylococcus aureus [7], 9 mm; in the assay on Pseudomonas aeruginosa [14] it was 14 mm; with Bacillus subtilis [15] it was 13 mm. For the same compound, the zone of inhibition at 1250 µg/mL in the assay on Staphylococcus aureus [3] worked out at 15 mm; in the assay with Bacillus pumilus [13], 25 mm. The minimal inhibitory concentration (MIC) with Micrococcus luteus [4] and in the assay with Escherichia coli was 30 µg/mL (≈ 68.4 µM) each time. Besides, the zone of inhibition at 500 µg/mL with Bacillus subtilis [5] was 14 mm; in the assay on Pseudomonas aeruginosa [10], 15 mm; in the assay with Aspergillus niger [12], 12 mm. In addition, the zone of inhibition at 1000 µg/mL with Bacillus pumilus [8] was found to be 23 mm.
